Assay results as given in EP0155799A2, “Paulomycin analogues and their preparation” (THE UPJOHN COMPANY, priority 1984, dated 1985).
Converted amounts (≈) assume the structure as drawn. Where two headings read alike, the source gives them in different places.

Key:
[1] = Solubility (characterization); type: physicochemical; conditions: solvents as named in the value
[2] = system: Streptococcus faecalis; assay: MIC, standard microplate agar assay, PYG agar pH 6 (aerobic bacteria); type: cell-based; conditions: Enterococcus faecalis, UC694, 24 h; Streptococcus faecalis UC 694, pH 6; read-out: MINIMAL INHIBITORY CONCENTRATION
Experimental: (§1) The antibacterial assay is a standard microplate agar assay using PYG agar, pH 6. PYG agar consists of the following ingredients:
(§2) The MIC is determined by standard methods. The inocula are overnight cultures of the test organisms, diluted so that the final population contains approximately 10^5 cells/ml. The agar plates are incubated at 28°C to 37°C for 24 hrs. The lowest antibiotic concentration which allows no growth=MIC or minimum inhibitory concentration.
as §2, with “growth-HIC” for “growth=MIC”

[3] = system: Enterobacter cloacae; assay: as above; type: cell-based; conditions: read-out: MINIMAL INHIBITORY CONCENTRATION
Experimental: as §1, §2
as §2, with “growth-HIC” for “growth=MIC”

[4] = system: Klebsiella pneumoniae; assay: as above; type: cell-based; conditions: UC58, 24 h; Klebsiella pneumoniae UC 58, pH 6; read-out: MINIMAL INHIBITORY CONCENTRATION
Experimental: as §1, §2
as §2, with “growth-HIC” for “growth=MIC”

[5] = system: Serratia marcescens; assay: as above; type: cell-based; conditions: for MIC: Serratia marcescens, UC6888, 24 h, pH 6, Serratia marcescens UC 6888, pH 6, read-out: MINIMAL INHIBITORY CONCENTRATION
Experimental: as §1, §2
as §2, with “growth-HIC” for “growth=MIC”

[6] = system: Pseudomonas aeruginosa; assay: as above; type: cell-based; conditions: read-out: MINIMAL INHIBITORY CONCENTRATION
Experimental: as §1, §2
as §2, with “growth-HIC” for “growth=MIC”

[7] = system: Proteus vulgaris; assay: as above; type: cell-based; conditions: UC30264, 24 h; Proteus vulgaris UC 30264, pH 6; read-out: MINIMAL INHIBITORY CONCENTRATION
Experimental: as §1, §2
as §2, with “growth-HIC” for “growth=MIC”

[8] = system: Klebsiella oxytoca; assay: as above; type: cell-based; conditions: read-out: MINIMAL INHIBITORY CONCENTRATION
Experimental: as §1, §2
as §2, with “growth-HIC” for “growth=MIC”

[9] = system: Staphylococcus aureus; assay: as above; type: cell-based; conditions: read-out: MINIMAL INHIBITORY CONCENTRATION
Experimental: as §1, §2
as §2, with “growth-HIC” for “growth=MIC”

[10] = system: Citrobacter freundii; assay: as above; type: cell-based; conditions: UC3507, 24 h; Citrobacter freundii UC 3507, pH 6; read-out: MINIMAL INHIBITORY CONCENTRATION
Experimental: as §1, §2
as §2, with “growth-HIC” for “growth=MIC”

[11] = system: Escherichia coli; assay: as above; type: cell-based; conditions: read-out: MINIMAL INHIBITORY CONCENTRATION
Experimental: as §1, §2
as §2, with “growth-HIC” for “growth=MIC”

[12] = system: Staphylococcus aureus U.C. 6685; assay: Antibacterial activity in vivo, experimentally infected mouse; conditions: sc, dosed subcutaneously, infected experimentally with Staphylococcus aureus U.C. 6685, read-out: CD50 (the source's name)
[13] = UC9381, 24 h, Enterobacter cloacae UC 9381, pH 6
[14] = UC9382, 24 h, Enterobacter cloacae UC 9382, pH 6
[15] = UC6432, 24 h, Pseudomonas aeruginosa UC 6432, pH 6
[16] = UC9191, 24 h, Pseudomonas aeruginosa UC 9191, pH 6
[17] = UC9383, 24 h, Klebsiella oxytoca UC 9383, pH 6
[18] = UC9384, 24 h, Klebsiella oxytoca UC 9384, pH 6
[19] = UC3665, 24 h, Staphylococcus aureus UC 3665, pH 6
[20] = UC6675, 24 h, Staphylococcus aureus UC 6675, pH 6
[21] = UC6685, 24 h, Staphylococcus aureus UC 6685, pH 6
[22] = UC311, 24 h, Escherichia coli UC 311, pH 6
[23] = UC9379, 24 h, Escherichia coli UC 9379, pH 6
[24] = UC9380, 24 h, Escherichia coli UC 9380, pH 6

CC=C(N=C=S)C(=O)OC1C(COC(C)=O)OC(C2(O)CC(=O)C(O)=C(C(N)=O)C2=O)C(O)C1OC1CC(OC)C(O)(C(C)OC(=O)CC(C)C)C(C)O1 (stereo not drawn) [Paulomycin A2]
Solubility [1]: Soluble in lower alcohols, ketones, ethyl acetate, chloroform, methylene chloride; less soluble in ether; insoluble in saturated hdyrocarbon solvents
MIC [2]: 0.25 µg/mL (≈ 0.318 µM)
MIC [3, 13]: > 64 µg/mL
MIC [3, 14]: > 64 µg/mL
MIC [4]: > 64 µg/mL
MIC [5]: > 64 µg/mL
MIC [6, 15]: > 64 µg/mL
MIC [6, 16]: > 64 µg/mL
MIC [7]: 32 µg/mL (≈ 40.7 µM)
MIC [8, 17]: > 64 µg/mL
MIC [8, 18]: > 64 µg/mL
MIC [9, 19]: 0.12 µg/mL (≈ 0.153 µM)
MIC [9, 20]: 0.12 µg/mL (≈ 0.153 µM)
MIC [9, 21]: 0.12 µg/mL (≈ 0.153 µM)
MIC [10]: > 64 µg/mL
MIC [11, 22]: > 64 µg/mL
MIC [11, 23]: > 64 µg/mL
MIC [11, 24]: > 64 µg/mL

CC=C(N=C=S)C(=O)OC1C(COC(C)=O)OC(C2(O)CC(=O)C(O)=C(C(N)=O)C2=O)C(O)C1OC1CC(OC)C(O)(C(C)OC(=O)C(C)CC)C(C)O1 (stereo not drawn) [Paulomycin A]
MIC [2]: 0.25 µg/mL (≈ 0.318 µM)
MIC [3, 13]: > 64 µg/mL
MIC [3, 14]: > 64 µg/mL
MIC [4]: > 64 µg/mL
MINIMAL INHIBITORY CONCENTRATION ([5]; Serratia marcescens UC 6888, pH 6): 64 µg/mL
MIC [5]: > 64 µg/mL
MIC [6, 15]: > 64 µg/mL
MIC [6, 16]: > 64 µg/mL
MIC [7]: 16 µg/mL (≈ 20.3 µM)
MIC [8, 17]: > 64 µg/mL
MIC [8, 18]: > 64 µg/mL
MIC [9, 19]: 0.12 µg/mL (≈ 0.153 µM)
MIC [9, 20]: 0.12 µg/mL (≈ 0.153 µM)
MIC [9, 21]: 0.12 µg/mL (≈ 0.153 µM)
MIC [10]: > 64 µg/mL
MIC [11, 22]: > 64 µg/mL
MIC [11, 23]: > 64 µg/mL
MIC [11, 24]: > 64 µg/mL

CC=C(N=C=S)C(=O)OC1C(COC(C)=O)OC(C2(O)CC(=O)C(O)=C(C(N)=O)C2=O)C(O)C1OC1CC(OC)C(O)(C(C)=O)C(C)O1 (stereo not drawn) [Paulomycin E]
Solubility [1]: Soluble in lower alcohols, ketones, ethyl acetate, chloroform, methylene chloride; less soluble in ether; insoluble in saturated hdyrocarbon solvents
MIC [2]: 1 µg/mL (≈ 1.43 µM)
MIC [3, 13]: > 64 µg/mL
MIC [3, 14]: > 64 µg/mL
MIC [4]: > 64 µg/mL
MIC [5]: > 64 µg/mL
MIC [6, 15]: > 64 µg/mL
MIC [6, 16]: > 64 µg/mL
MIC [7]: > 64 µg/mL
MIC [8, 17]: > 64 µg/mL
MIC [8, 18]: > 64 µg/mL
MIC [9, 19]: 1 µg/mL (≈ 1.43 µM)
MIC [9, 20]: 1 µg/mL (≈ 1.43 µM)
MIC [9, 21]: 1 µg/mL (≈ 1.43 µM)
MIC [10]: > 64 µg/mL
MIC [11, 22]: > 64 µg/mL
MIC [11, 23]: > 64 µg/mL
MIC [11, 24]: > 64 µg/mL

CCC(C)C(=O)OC(C)C1(O)C(C)OC(OC2C(O)C(C3(O)CC(=O)C(O)=C(C(N)=O)C3=O)OC(COC(C)=O)C2OC(=O)C(NC(=S)SC[C@H](NC(C)=O)C(=O)O)C(C)SCCO)CC1OC (stereo partly drawn) [R2=CH2CH2OH R3=CH2CHCOOH | NHCOCH3]
ED50 [12]: 15.3 mg/kg

CCC(C)C(=O)OC(C)C1(O)C(C)OC(OC2C(O)C(C3(O)CC(=O)C(O)=C(C(N)=O)C3=O)OC(COC(C)=O)C2OC(=O)C(NC(=S)SCCO)C(C)SC[C@H](NC(C)=O)C(=O)O)CC1OC (stereo partly drawn) [R2=CH2CHCOOH | NHCOCH3 R3=CH2CH2OH]
ED50 [12]: 8 mg/kg

CCC(C)C(=O)OC(C)C1(O)C(C)OC(OC2C(O)C(C3(O)CC(=O)C(O)=C(C(N)=O)C3=O)OC(COC(C)=O)C2OC(=O)C(NC(=S)SCCO)C(C)SC(CC(=O)O)C(=O)O)CC1OC (stereo not drawn) [R2=CHCOOH | CH2COOH R3=CH2CH2OH]
ED50 [12]: 44 mg/kg
